Test results: patent US12612395B2, “Rocaglate derivatives and uses thereof” (TRUSTEES OF BOSTON UNIVERSITY, priority 2023, dated 2026)
Like-named read-outs stand apart in the source and are kept apart here.

What was measured:
GBM0308 CSCs = assay: Dose-response killing of GBM CSCs (PI/Hoechst, Celigo cytometer); type: cell-based
Excerpt: (§1) The inventors first evaluated a cohort of seven rocaglate translation inhibitors (1, 3-7, and 9, FIG. 1A and Table 1, compounds 2 and 8 were not tested due to unavailability). To assay for compounds that selectively affect GBM CSCs, the inventors employed the patient-derived tumor-initiating cell (TIC) cell line […] that forms neurospheres (consisting exclusively of tumor-initiating cells or CSCs) when cultured in neurobasal (NBE) medium. Upon exposure to serum and growth factor withdrawal, however, the cell line differentiates, acquires a flattened morphology, and forms a non-CSC population.^20 Thus, compounds can be tested in parallel to assess their effect on GBM CSCs vs. GBM non-CSCs as separate populations with a clean and robust response. This approach has been previously used to perform RNAi-based genetic screens to identify modulators of CSCs.^20 In this study, GBM0308 cells, cultured in stem cell conditions to form CSCs or in medium containing serum to induce differentiation into a non-CSC population, were treated in parallel with compounds at varying doses. Three days post-treatment, propidium iodide (PI) and Hoechst staining were performed and quantified using a Celigo image cytometer. Hoechst dye stained all […] nucleated cells, while PI exclusively stained dead cells. Cell viability and the percentage of cell death were then determined.
(§2) Cell Culture: Glioblastoma stem cell lines GBM0308, BT145, and BT112 were cultured in neurobasal (NBE medium) containing N-2 and B-27 supplements, EGF, bFGF, L-glutamine, and Penicillin-Streptomycin), as described previously.^19 Adherent GBM cells were cultured in serum-containing DMEM media (Invitrogen) supplemented with 10% fetal bovine serum (Corning Cellgro™). Cells were incubated at 37° C. and 5% CO2 to allow neurosphere formation. For seeding and subculturing, the neurospheres were gently trypsinized with 0.025% trypsin to form a single-cell suspension.
(§3) Dose-Response Testing in GBM Cells: Briefly, on day 1, cells were seeded in triplicate. For CSCs, 1500 cells/well were plated in a low attachment 96-well plate with NBE media and incubated for 3 days at 37° C. and 5% CO2 to allow the formation of neurospheres. For non-CSCs, 3000 cells/well were plated in a 96-well plate with DMEM media supplemented with 10% FBS. Similarly, the assay plates were also incubated for the same duration. Compound treatments started on day 4. Each compound was resuspended in DMSO and then diluted to different concentrations in media to a final concentration of DMSO less than 1%. The compounds were added at concentrations of 10, 3.3, 1.11, 0.37, 0.12, 0.041, 0.013, and 0.004 µM, respectively. DMSO-treated cells served as a control. After 72 h incubation with the compounds, fluorescent stains, propidium iodide, and Hoechst 33342 (Life Technologies, Carlsbad, CA), were used to stain the GBM cells to determine cell viability. A staining solution in 1×PBS was prepared by mixing PI and Hoechst 33342 to working concentrations of 2.5 μM and 20 μM, respectively. 20 μL of this staining solution was added per well, and plates were incubated at 37° C. and 5% CO2 for 60 min. After incubation, plates were read by Celigo imaging cytometer using an inbuilt Celigo application; Cell Viability (Dead+Total). For the viability measurement, the total number of neurospheres/cells and dead neurospheres/cells in each well were counted by the cytometer. The percentage of PI+ cells was normalized to DMSO and plotted against the drug concentration to calculate the EC50 with a four-parameter, variable-slope dose-response curve with an upper constraint of <100% dead cells and a lower constraint of =0% dead cells (GraphPad Prism v.10.0.0). For all dose response experiments, the experimental maximal efficacy (maximum observed % cell death) is reported. Relative EC50 values are reported for all compounds killing >50% of cells.

DDX3X = target: T1, DDX3X (Homo sapiens, UniProt O00571); assay: PISA assay in GBM0308 cell lysates, DDX3X; type: binding; conditions: GBM0308 lysate, compound 10 μM, AMP-PNP and (AG)8 RNA added
T1 construct: endogenous in cells; host or cells: GBM0308 glioblastoma stem cells (lysate)
Excerpt: (§4) Derivatization-free target identification using a modified proteome integral solubility alteration (PISA) assay. The inventors next pursued proteome-wide target identification to better understand the target profiles of CSC-selective rocaglates. To enable cross-compound comparisons of target engagement, the inventors opted to use the Proteome Integral Solubility Alteration (PISA) assay,^29 a derivative of the mass spectrometry-based Cellular Thermal Shift Assay (MS-CETSA). In MS-CETSA,^30,31 target engagement is inferred through proteome-wide analysis of compound-induced changes to protein thermal stability; proteins with a shift in their half-maximal thermal denaturation temperature upon compound treatment are flagged as potential targets. The PISA assay obviates the need for MS-CETSA-derived thermal denaturation curves through curve integration by pooling of individual temperature points into a single “integral” sample for each treatment condition, thereby increasing throughput (FIG. 9). In contrast to MS-CETSA (which relies on curve comparisons), PISA determinations are performed by simply comparing soluble protein abundance levels between compound- and DMSO-treated samples. Importantly, protein fold-change measurements in PISA experiments generally scale with the thermal shift derived from CETSA experiments, and the magnitude of a thermal shift can inform on relative affinity between compounds and individual targets.^30,32-25 Maximal stability changes are protein-specific,^36 however, precluding estimations of preference for one target over another. Thus, PISA allows for simultaneous target profiling and comparisons of binding affinity between different compounds within a given target.
(§5) Of note, we also detected stabilization of DDX3Y, a paralog which shares >90% sequence similarity with DDX3X.
PISA assay in GBM0308 cell lysates: The PISA assay was performed in lysates as described by Gaetani and coworkers^S2 with slight modification. […] Lysate concentration was determined using a Pierce BCA Protein Assay Kit and adjusted to 2.0 mg/mL in lysis buffer. […]

eIF4A paralogs (eIF4A1) = assay: PISA assay in GBM0308 cell lysates, eIF4A; type: binding, human; conditions: GBM0308 lysate, compound 10 μM, AMP-PNP and (AG)8 RNA added
Excerpt: as §4, §5
PISA assay in GBM0308 cell lysates: The PISA assay was performed in lysates as described by Gaetani and coworkers^S2 with slight modification. Pelleted GBM0308 cells were resuspended in ice-cold lysis buffer (1×PBS pH 7.4, 2 mM MgCl2, 0.5 mM AMP-PNP, 1 μM (AG)8 RNA, HALT protease inhibitor cocktail EDTA-free) and subjected to three freeze-thaw cycles with liquid nitrogen to extract lysate proteins. Thawing was performed at room temperature until ˜80% thawed, then completed on ice. Lysate was clarified by centrifugation for 10 minutes at 20,000 RCF and 4° C., transferred to a fresh Eppendorf tube, then centrifuged again for 10 minutes at 20,000 RCF and 4° C. to ensure removal of debris. Lysate concentration was determined using a Pierce BCA Protein Assay Kit and adjusted to 2.0 mg/mL in lysis buffer. Lysate was mixed 1:1 with a 2× solution of test compound or DMSO in lysis buffer, gently aspirated to ensure proper mixing, and incubated at room temperature for 10 minutes. […]

GBM0308 non-CSCs = assay: Dose-response killing of GBM non-CSCs (PI/Hoechst, Celigo cytometer); type: cell-based; conditions: 72 h; for Emax: Homo sapiens
Excerpt: as §1, §2, §3

GBM0308 neurospheres = assay: Neurosphere formation assay (single neurosphere, PI/Hoechst); type: cell-based; conditions: 72 hours
Experimental: To gain additional mechanistic insights into GBM cell death induced by (−)-20, the inventors conducted several functional assays. The inventors first derived a single neurosphere from GBM0308 cells cultured in stem cell conditions, which was treated with either DMSO or (−)-20 at varying doses for three days followed by staining with PI and Hoechst dyes and subsequent imaging. […] To capture the kinetics of apoptotic events, the inventors employed caspase 3/7 staining of GBM0308 neurospheres treated with either DMSO or (−)-20 and subsequently evaluated at three timepoints over a 48-hour period. […] (FIG. 5B).
Neurosphere Formation Assays: Single neurospheres were generated by seeding GBM0308 cells (400 cells per well) in a 384-well ultra-low attachment round bottom microplate (Nexcelom Bioscience, ULA-384 U). The plates were then centrifuged at 300×g for 10 minutes to cluster cells at the bottom of the wells, followed by incubation at 37° C. and 5% CO2 for 4 days to allow the formation of single neurospheres and treated with either DMSO or drugs at concentrations of 3.3, 1.11, 0.37, 0.12, 0.041, 0.013, 0.004 μM. On Day 7, neurospheres were stained with propidium iodide and Hoechst, as described above. The “neurosphere 1+Mask” application was used to measure the fluorescent intensities of PI, using Celigo cytometer as described previously.^70

[1] = Table 1, GBM0308 CSCs, 72 h, up to 10 μM
[2] = Table 1, GBM0308 non-CSCs, up to 10 μM
[3] = Homo sapiens, 72 h, read-out: CSCs EC50 (μM), Table 2, GBM0308 CSCs, 72 h treatment, relative EC50
[4] = Homo sapiens, 72 h, read-out: CSCs Max. observed efficacy (% dead cells), Table 2, GBM0308 CSCs, 72 h, highest tested concentration 10 μM
[5] = read-out: Non-CSCs Max. observed efficacy (% dead cells), Table 2, GBM0308 non-CSCs, highest tested concentration 10 μM
[6] = Homo sapiens, 72 h, read-out: CSC Max. observed efficacy (% dead cells), Table 7, cell line not given
[7] = Homo sapiens, read-out: CSC EC50 (μM), Table 7, cell line not given
[8] = read-out: Non-CSC Max. observed efficacy (% dead cells), Table 7, cell line not given

T1 sequence (O00571 whole entry): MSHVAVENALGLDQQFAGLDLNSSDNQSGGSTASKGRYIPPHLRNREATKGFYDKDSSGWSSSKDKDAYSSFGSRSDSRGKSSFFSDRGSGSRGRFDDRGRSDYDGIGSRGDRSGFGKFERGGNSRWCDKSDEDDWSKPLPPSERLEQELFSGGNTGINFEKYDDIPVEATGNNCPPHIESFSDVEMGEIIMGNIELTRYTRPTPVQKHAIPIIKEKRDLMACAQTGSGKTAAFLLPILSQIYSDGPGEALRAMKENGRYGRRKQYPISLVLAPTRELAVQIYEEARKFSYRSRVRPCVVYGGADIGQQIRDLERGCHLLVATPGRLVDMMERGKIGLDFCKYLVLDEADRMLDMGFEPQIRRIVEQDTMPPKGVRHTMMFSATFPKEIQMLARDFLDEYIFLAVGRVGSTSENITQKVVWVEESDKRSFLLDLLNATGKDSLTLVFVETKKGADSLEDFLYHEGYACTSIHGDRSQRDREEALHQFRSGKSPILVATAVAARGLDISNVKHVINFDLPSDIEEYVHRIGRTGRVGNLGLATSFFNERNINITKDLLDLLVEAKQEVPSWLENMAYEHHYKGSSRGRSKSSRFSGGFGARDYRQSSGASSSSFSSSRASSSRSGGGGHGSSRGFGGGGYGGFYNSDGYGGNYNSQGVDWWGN

rocaglamide A [(−)-1, reference compound]
CSCs Max. observed efficacy (% dead cells) (GBM0308 CSCs; [1]): 84% | EC50 (GBM0308 CSCs; Table 1, GBM0308 CSCs, 72 h treatment, relative EC50, given for compounds causing at least 50% cell death, read-out: CSCs EC50): 0.387 µM | thermal stabilization of DDX3X (PISA), in words (DDX3X): thermal stabilization | thermal stabilization of eIF4A paralogs (PISA), in words (eIF4A paralogs (eIF4A1)): thermal stabilization | Non-CSCs Max. observed efficacy (% dead cells) (GBM0308 non-CSCs; [2]): 31%

RK-33 [reference compound]
concentration required to observe a noticeable effect on neurosphere size (GBM0308 neurospheres): > 3 µM

COc1ccc([C@@]23Oc4cc(OC)cc(OC)c4[C@]2(O)[C@H](O)[C@H](C(=O)NS(C)(=O)=O)[C@H]3c2ccccc2)cc1 [(−)-15, (1R,2R,3S,3aR,8bS)-1,8b-dihydroxy-6,8-dimethoxy-3a-(4-methoxyphenyl)-N-(methylsulfonyl)-3-phenyl-2,3,3a,8b-tetrahydro-1H-cyclopenta[b]benzofuran-2-carboxamide]
EC50 (GBM0308 CSCs; [3]): 1 to 10 µM | Emax (GBM0308 CSCs; [4]): 85% | EC50 (GBM0308 CSCs; read-out: CSCs EC50, Table 2, GBM0308 CSCs, 72 h treatment, relative EC50): 0.98 µM | Emax (GBM0308 non-CSCs; [5]): 19%

aglaroxin C [rac-4, reference compound]
CSCs Max. observed efficacy (% dead cells) (GBM0308 CSCs; [1]): 42% | CSCs Max. observed efficacy (% dead cells) (GBM0308 CSCs; Table 1, GBM0308 CSCs, 72 h, up to 10 μM, listed as 4): ≤ 50% | Non-CSCs Max. observed efficacy (% dead cells) (GBM0308 non-CSCs; [2]): 26%

COc1cc(OC)c2c(c1)O[C@@]1(c3ccc(Cl)cc3)[C@H](c3ccccc3)[C@@H](C(=O)NS(=O)(=O)N(C)C)[C@@H](O)[C@@]21O [ZW-12-31, (1R,2R,3S,3aR,8bS)-3a-(4-chlorophenyl)-N—(N,N-dimethylsulfamoyl)-1,8b-dihydroxy-6,8-dimethoxy-3-phenyl-2,3,3a,8b-tetrahydro-1H-cyclopenta[b]benzofuran-2-carboxamide]
Emax (GBM0308 CSCs; [6]): 72% | EC50 (GBM0308 CSCs; [7]): 0.693 µM | Emax (GBM0308 non-CSCs; [8]): 25%

C#CCNS(=O)(=O)NC(=O)[C@H]1[C@@H](O)[C@@]2(O)c3c(OC)cc(OC)cc3O[C@@]2(c2ccc(Br)cc2)[C@@H]1c1ccccc1 [(−)-21, (1R,2R,3S,3aR,8bS)-3a-(4-bromophenyl)-1,8b-dihydroxy-6,8-dimethoxy-3-phenyl-N—(N-(prop-2-yn-1-yl)sulfamoyl)-2,3,3a,8b-tetrahydro-1H-cyclopenta[b]benzofuran-2-carboxamide]
EC50 (GBM0308 CSCs; [3]): 0.016 µM | Emax (GBM0308 CSCs; [4]): 92% | Emax (GBM0308 non-CSCs; [5]): 27%

COc1cc(OC)c2c(c1)O[C@@]1(c3ccc(C#N)cc3)[C@H](c3ccccc3)[C@@H](C(=O)NS(=O)(=O)N(C)C)[C@@H](O)[C@@]21O [ZW-12-30, (1R,2R,3S,3aR,8bS)-3a-(4-cyanophenyl)-N—(N,N-dimethylsulfamoyl)-1,8b-dihydroxy-6,8-dimethoxy-3-phenyl-2,3,3a,8b-tetrahydro-1H-cyclopenta[b]benzofuran-2-carboxamide]
Emax (GBM0308 CSCs; [6]): 94% | EC50 (GBM0308 CSCs; [7]): 0.632 µM | Emax (GBM0308 non-CSCs; [8]): 21%

COc1cc(OC)c2c(c1)O[C@@]1(c3ccc(Br)cc3)[C@H](c3ccccc3)[C@@H](C(=O)O)[C@@H](O)[C@@]21O [(−)-11]
CSCs Max. observed efficacy (% dead cells) (GBM0308 CSCs; Table 2, GBM0308 CSCs, 72 h, highest tested concentration 10 μM): 92% | EC50 (GBM0308 CSCs; Table 2, GBM0308 CSCs, 72 h treatment, relative EC50, read-out: CSCs EC50): 0.121 µM | Non-CSCs Max. observed efficacy (% dead cells) (GBM0308 non-CSCs; Table 2, GBM0308 non-CSCs, highest tested concentration 10 μM): 25%
